{"source": "patent US20070264330A1", "about": "(priority 2006, published 2007)", "key": {"[1]": {"assay": "Excipient compatibility study with crystalline Form A: HPLC assay of % drug", "type": "physicochemical", "experimental": "Physical mixtures of crystalline Form A and fourteen processing excipients, gelatin and hydroxypropyl methylcellulose capsules, and drug substance alone were prepared. […] Each sample group was stored under the following conditions: 5° C. (for time=0 testing), 40° C./75% RH (relative humidity) one month, and 40° C./75% RH three months. Bulk drug substance was weighed and added to a sample vial. De-ionized water was then measured (0.015 mL) and added to the vials designated as wet samples. The wet samples were then mixed using a vortex mixer for approximately 15 seconds to incorporate the water and the drug. Excipient was then weighed and added to appropriate vials. The contents of each vial were mixed for approximately 15 seconds using a vortex mixer to produce a uniform mixture of (wet or dry) drug/excipient. To prepare the capsule samples, the bulk drug substance was weighed directly into the capsule. The capsules were then placed into appropriate vials. Fifteen microliters of de-ionized water was added to the inside of capsules designated as wet samples. All samples were stored in 20 mL Type I clear glass scintillation vials with foil-lined screw-type vial caps were tightened by hand. Samples were stored in controlled room temperature/humidity until ready for testing. Other sample vials were stored at 40° C./75% RH unprotected from light and tested at one and three months. […] The vials were rinsed several times with diluent and added to the volumetric flasks. The contents of the capsules were transferred to 50 mL volumetric flasks and the capsule shells were also rinsed with diluent. Diluent was added to the volumetric flasks and they were sonicated for 10 minutes, then diluted to volume with diluent. The solutions were further diluted 5.0 mL into a 50 mL volumetric flask and brought to volume with diluent. These diluted solutions were used for the assay. All solutions were filtered through 0.45 micron PTFE filters, with the first 1-2 mL discarded before filling the HPLC autosampler vials. The diluted sample solutions were assayed against a reference standard of drug product prepared in a similar manner."}, "[2]": {"assay": "Excipient compatibility study with crystalline Form A: Total Related Substance (TRS)", "type": "physicochemical", "experimental": "Binary mixtures of drug with each excipient were prepared by physically mixing 50.0 mg (±2.0 mg) of drug substance with the specified proportion of each excipient. The stability of the drug in the presence of each excipient was studied in dry samples as well as with 30% w/w (relative to bulk drug weight) de-ionized water. Each sample group was stored under the following conditions: 5° C. (for time=0 testing), 40° C./75% RH (relative humidity) one month, and 40° C./75% RH three months."}, "[3]": {"assay": "Solubility in water of the tartrate salt", "type": "physicochemical", "details": "tartrate salt versus compound of formula I", "excerpt": "The tartrate salt of pimavanserin may be prepared as an integrated part of the process for synthesizing the compound as described above by using tartaric acid as the salt forming acid. Alternatively, the tartrate salt may be formed by reaction of the isolated compound of formula I with tartaric acid."}, "[4]": {"assay": "In vivo human and non-human animal studies"}, "[5]": {"details": "wet conditions (30% w/w water added)"}}}
{"molecule": "CC(C)COc1ccc(CNC(=O)N(Cc2ccc(F)cc2)C2CCN(C)CC2)cc1.CC(C)COc1ccc(CNC(=O)N(Cc2ccc(F)cc2)C2CCN(C)CC2)cc1.O=C(O)C(O)C(O)C(=O)O", "note": "[#17 Drug Substance]", "values": [{"measurement": "% Drug One Month 40° C./75% RH", "setting": "[1]; dry conditions", "value": 94.9, "unit": "%"}, {"measurement": "% Drug Three Months 40° C./75% RH", "setting": "[1]; dry conditions", "value": 95.9, "unit": "%"}, {"measurement": "% Drug (time = 0)", "setting": "[1]; dry conditions", "value": 98.4, "unit": "%"}, {"measurement": "% Drug One Month 40° C./75% RH", "setting": "[1]; [5]", "value": 91.2, "unit": "%"}, {"measurement": "% Drug Three Months 40° C./75% RH", "setting": "[1]; [5]", "value": 93.5, "unit": "%"}, {"measurement": "% Drug (time = 0)", "setting": "[1]; [5]", "value": 98.5, "unit": "%"}, {"measurement": "Total related substance, 1 month - Dry", "setting": "[2]; dry, 1 month 40° C./75% RH", "value": 1.38}, {"measurement": "Total related substance, 3 month - Dry", "setting": "[2]; dry, 3 month 40° C./75% RH", "value": 2.72}, {"measurement": "Total related substance, Time 0 - Dry", "setting": "[2]; dry, time 0", "value": 0.35}, {"measurement": "Total related substance, 1 month - Wet", "setting": "[2]; wet (30% w/w water), 1 month 40° C./75% RH", "value": 1.67}, {"measurement": "Total related substance, 3 month - Wet", "setting": "[2]; wet (30% w/w water), 3 month 40° C./75% RH", "value": 3.39}, {"measurement": "Total related substance, Time 0 - Wet", "setting": "[2]; wet (30% w/w water), time 0", "value": 0.36}]}
{"molecule": "tartrate salt of N-(4-fluorobenzyl)-N-(1-methylpiperidin-4-yl)-N′-(4-(2-methylpropyloxy)phenylmethyl)carbamide [pimavanserin tartrate]", "values": [{"measurement": "solubility in water", "setting": "[3]", "value": "improved solubility in water"}]}
{"molecule": "CC(C)COc1ccc(CNC(=O)N(Cc2ccc(F)cc2)C2CCN(C)CC2)cc1", "note": "[pimavanserin, N-(1-methylpiperidin-4-yl)-N-(4-fluorophenylmethyl)-N′-(4-(2-methylpropyloxy)phenylmethyl)carbamide]", "values": [{"measurement": "in vivo activity", "setting": "[4]", "value": "anti-psychotic, anti-dyskinesia, and anti-insomnia activity"}]}
